Molecular target: T1, human PAH with the R408W mutation (A375 R408W cells) (Homo sapiens, UniProt P00439, R408W)
T1 construct: expressed in transfected cells
T1 sequence (P00439 1-452 R408W): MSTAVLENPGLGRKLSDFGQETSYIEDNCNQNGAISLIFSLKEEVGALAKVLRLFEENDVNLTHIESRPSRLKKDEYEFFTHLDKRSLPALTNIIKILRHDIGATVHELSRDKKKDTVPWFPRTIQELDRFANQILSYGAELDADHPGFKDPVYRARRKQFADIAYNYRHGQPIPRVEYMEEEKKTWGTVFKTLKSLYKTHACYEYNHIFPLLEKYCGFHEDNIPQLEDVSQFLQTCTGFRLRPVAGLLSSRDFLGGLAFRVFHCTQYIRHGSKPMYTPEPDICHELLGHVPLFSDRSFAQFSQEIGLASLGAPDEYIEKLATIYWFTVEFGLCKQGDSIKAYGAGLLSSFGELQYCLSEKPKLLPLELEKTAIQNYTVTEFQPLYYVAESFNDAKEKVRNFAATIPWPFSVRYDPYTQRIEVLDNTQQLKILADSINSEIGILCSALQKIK
Assay: Cell Based Phenylalanine Flux Assay
Details: 24 hrs with compound, then 20 μM sepiapterin and 800 μM 13C9,15N-Phenylalanine for 4 hours, 13C-Tyrosine by LC-MS, average where tested multiple times
How it was run: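 LC-MS quantitation of 13C-tyrosine in media gave AC50 values. Stable A375 R408W PAH cells were preincubated 24 h with compound, then fed 800 μM labelled Phe plus 20 μM sepiapterin for 4 h. Dose curves were 10-point, tested in duplicate, averaged over repeat runs.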

[1] = A375 cells expressing R408W PAH

In the case of `O=C(c1ocnc1C(F)F)N1CCc2[nH]cnc2[C@@H]1c1nc2cccc(Br)c2o1` [Example 462, (R)-(4-(7-bromobenzo[d]oxazol-2-yl)-6,7-dihydro-1H-imidazo[4,5-c]pyridin-5(4H)-yl)(4-(difluoromethyl)oxazol-5-yl)methanone], the AC50 (A375 R408W cells) is reported as no more than 0.5 µM.
Work on `Cn1ncc(C(=O)N2CCc3[nH]cnc3C2c2nc3cc(F)ccc3o2)c1C(F)F` (stereo not drawn) yielded an AC50 [1] of 1 to 5 µM.
`O=C(c1ccnn1C(F)(F)F)N1CCc2[nH]cnc2[C@@H]1c1nc2c(F)cccc2o1` [Example 294, (R)-(4-(4-fluorobenzo[d]oxazol-2-yl)-6,7-dihydro-1H-imidazo[4,5-c]pyridin-5(4H)-yl)(1-(trifluoromethyl)-1H-pyrazol-5-yl)methanone] was tested, and the AC50 (A375 R408W cells) was 1 to 5 µM.
In the case of `Cn1nc(C(F)(F)F)nc1C(=O)N1CCc2[nH]cnc2C1c1nc2cc(F)ccc2o1` (stereo not drawn), the AC50 [1] is reported as 1 to 5 µM.
In the case of `O=C(CCc1cncs1)N1CCc2[nH]cnc2C1c1nc2cc(F)ccc2o1` (stereo not drawn), the AC50 [1] is reported as 1 to 5 µM.
`CC(C)(O)c1nc(C(F)(F)F)c(C(=O)N2CCc3[nH]cnc3[C@@H]2c2nc3ccc(F)cc3o2)o1` [Example 256, (R)-(4-(6-fluorobenzo[d]oxazol-2-yl)-6,7-dihydro-1H-imidazo[4,5-c]pyridin-5(4H)-yl)(2-(2-hydroxypropan-2-yl)-4-(trifluoromethyl)oxazol-5-yl)methanone] gave an AC50 (A375 R408W cells) of 1 to 5 µM.
In the case of `O=C(c1c(C(F)(F)F)nn2ccccc12)N1CCc2[nH]cnc2[C@H]1c1nc2cc(F)ccc2o1` [Example 915, (S)-(4-(5-fluorobenzo[d]oxazol-2-yl)-6,7-dihydro-1H-imidazo[4,5-c]pyridin-5(4H)-yl)(2-(trifluoromethyl)pyrazolo[1,5-a]pyridin-3-yl)methanone], the AC50 (A375 R408W cells) is reported as no more than 0.5 µM.
`O=C(c1nnc(-c2ccc(F)cc2F)o1)N1CCc2[nH]cnc2[C@H]1c1nc2cc(F)ccc2o1` [Example 84, (S)-(5-(2,4-difluorophenyl)-1,3,4-oxadiazol-2-yl)(4-(5-fluorobenzo[d]oxazol-2-yl)-6,7-dihydro-1H-imidazo[4,5-c]pyridin-5(4H)-yl)methanone] was tested, and the AC50 (A375 R408W cells) was no more than 0.5 µM.
`O=C(c1nnc(-c2ccccn2)o1)N1CCc2[nH]cnc2[C@H]1c1nc2ccc(F)cc2o1` [Example 303, (S)-(4-(6-fluorobenzo[d]oxazol-2-yl)-6,7-dihydro-1H-imidazo[4,5-c]pyridin-5(4H)-yl)(5-(pyridin-2-yl)-1,3,4-oxadiazol-2-yl)methanone] gave an AC50 (A375 R408W cells) of no more than 0.5 µM.
`Cn1cnnc1C(=O)N1CCc2[nH]cnc2C1c1nc2ccc(F)cc2o1` (stereo not drawn) was tested, and the AC50 [1] was 1 to 5 µM.
`Cn1nc(C(F)F)nc1C(=O)N1CCc2[nH]cnc2[C@H]1c1nc2ccccc2o1` [Example 561, (S)-(4-(benzo[d]oxazol-2-yl)-6,7-dihydro-1H-imidazo[4,5-c]pyridin-5(4H)-yl)(3-(difluoromethyl)-1-methyl-1H-1,2,4-triazol-5-yl)methanone] showed an AC50 (A375 R408W cells) of 0.5 to 1 µM.
In the case of `Cc1ccc(F)c2oc([C@@H]3c4nc[nH]c4CCN3C(=O)c3ocnc3C(F)F)nc12` [Example 898, (S)-(4-(difluoromethyl)oxazol-5-yl)(4-(7-fluoro-4-methylbenzo[d]oxazol-2-yl)-6,7-dihydro-1H-imidazo[4,5-c]pyridin-5(4H)-yl)methanone], the AC50 (A375 R408W cells) is reported as no more than 0.5 µM.
`O=C(c1nnc(-c2cnn(C3CCC3)c2)o1)N1CCc2[nH]cnc2[C@@H]1c1nc2c(F)ccc(F)c2o1` [Example 812, (R)-(5-(1-cyclobutyl-1H-pyrazol-4-yl)-1,3,4-oxadiazol-2-yl)(4-(4,7-difluorobenzo[d]oxazol-2-yl)-6,7-dihydro-1H-imidazo[4,5-c]pyridin-5(4H)-yl)methanone] showed an AC50 (A375 R408W cells) of 0.5 to 1 µM.
Work on `CC(C)(O)c1nc(C(F)(F)F)c(C(=O)N2CCc3[nH]cnc3[C@H]2c2nc3cc(F)ccc3o2)o1` [Example 45, (S)-(4-(5-fluorobenzo[d]oxazol-2-yl)-6,7-dihydro-1H-imidazo[4,5-c]pyridin-5(4H)-yl)(2-(2-hydroxypropan-2-yl)-4-(trifluoromethyl)oxazol-5-yl)methanone] yielded an AC50 (A375 R408W cells) of no more than 0.5 µM.
`CC(C)(O)c1nc(C(F)F)c(C(=O)N2CCc3[nH]cnc3[C@H]2c2nc3cc(F)ccc3o2)o1` (single isomer, unassigned) [Example 107] showed an AC50 (A375 R408W cells) of no more than 0.5 µM.

Reference: US20250171437A1 (Agios Pharmaceuticals,Inc., priority 2022, published 2025)
